Reference: ChEMBL document CHEMBL5360641, “4'-Ethynyl-2'-deoxy-2'-β-fluoro-2-fluoroadenosine: A Highly Potent and Orally Available Clinical Candidate for the Treatment of HIV-1 Infection” (J Med Chem, 2023)

Tests used:
[1] = system: Human immunodeficiency virus 1; assay: Antiviral activity against HIV1 VSV-G pseudotyped virus infected in human HEK293T cells assessed as inhibition of viral growth preincubated for 3 hrs followed by washout and further incubated with compound for 72 hrs by luciferase assay; type: functional, organism-based; details: Human immunodeficiency virus 1, HEK-293T
[2] = Selectivity index, ratio of CC50 for cytotoxicity against HEK293T cells assessed as reduction in cell viability by MTT assay to EC50 for antiviral activity against HIV1 VSV-G pseudotyped virus infected in human HEK293T cells assessed as inhibition of viral growth; type: toxicity, cell-based; details: read-out: Ratio CC50/EC50
[3] = Cytotoxicity against HEK293T cells assessed as reduction in cell viability by MTT assay; type: toxicity, cell-based, HEK-293T; details: human

COc1nc(N)c2ncn([C@@H]3O[C@@](CO)(N=[N+]=[N-])[C@@H](O)[C@@H]3F)c2n1
EC50 [1]: 4.46 nM
selectivity ratio [2]: > 22400
CC50 [3]: > 100000 nM
